{"source": "patent US4877776A", "about": "“K-252 compounds” (Kyowa Hakko Kogyo Co., Ltd., priority 1987, dated 1989)", "key": {"[1]": {"test_system": "histamine release", "details": "in words, from other filings; cited from earlier work"}, "[2]": {"test_system": "MCF7 cells (human breast cancer cell MCF7)", "assay": "MCF7 cell growth inhibition test", "type": "cell-based", "details": "read-out: IC50, MCF7 cell growth inhibitory activity", "method": "(§1) Compound (I) obtained by the present invention was examined for C-kinase inhibitory activity and cell growth inhibitory activity by the following methods.\n(§2) Cell growth inhibition tests:\n(1) MCF7 cell growth inhibition test:\n(§3) MCF7 cells (4.5×10^4 cells/ml) pepared in RPMI 1640 medium containing 10% fetal calf serum, 10 μg/ml insulin and 10^-8 M estradiol are put into wells of a 96-well microtiter plate in the amount of 0.1 ml per each well. After incubation at 37° C. overnight in CO2 -incubator, 0.05 ml of a test sample appropriately diluted with the culture medium is added to each well. The cells are further cultured in CO2 -incubator, and then the culture supernatant is removed and the wells are washed once with PBS(-). Thereafter, 0.1 ml of fresh medium is added to each well, followed by culturing at 37° C. for 72 hours in CO2 -incubator. After the culture supernatant is removed, 0.1 ml of the culture medium containing 0.02% Neutral Red is added to each well, followed by culturing at 37° C. for one hour in CO2 -incubator, whereby the cells are stained. Then, the culture supernatant is removed and the cells are washed once with physiological saline. The pigment is extracted with 0.001N hydrochloric acid/30% ethanol and absorption is measured at 550 nm with a microplate reader. By comparing the absorption of intact cells with those of the cells treated with a test compound at known concentrations, the concentration of the test compound at which growth of the cells is inhibited 50% is calculated as IC50."}, "[3]": {"test_system": "HeLaS3 cells (human uterine cervical cancer HeLa cells)", "assay": "HeLaS3 cell growth inhibition test", "type": "cell-based", "details": "read-out: IC50, HeLaS3 cell growth inhibitory activity", "method": "as §1, §2, §3\n(2) HaLaS3 cell growth inhibition test:\nHeLaS3 cells (3×10^4 cells/ml) prepared in MEM medium containing 10% fetal calf serum and 2 mM glutamine are put into wells of a 96-well microtiter plate in the amount of 0.1 ml per each well.\nThereafter, the test is carried out in the same manner as in (1)."}, "[4]": {"test_system": "COLO320DM cells (human colon adenocarcinoma cell COLO320DM)", "assay": "COLO320DM cell growth inhibition test", "type": "cell-based", "details": "COLO 320DM, read-out: IC50, COLO320DM cell growth inhibitory activity", "method": "as §1, §2\n(3) COLO320DM cell growth inhibition test:\nCOLO320DM cells (10^5 cells/ml) prepared in RPMI 1640 medium containing 10% fetal calf serum, 100 U/ml penicillin and 100 μg/ml streptomycin are put into wells of a 96-well microtiter plate in the amount of 0.1 ml per each well. Thereafter, the test is carried out in the same manner as in (1) except that the cells are counted with a microcell counter. By comparing the number of intact cells with those of the cells treated with a test compound at known concentrations, the concentration of the test compound at which growth of the cells is inhibited 50% is calculated as IC50."}, "[5]": {"details": "in words, from other filing; cited from earlier work"}, "[6]": {"molecular_target": "C-kinase (protein kinase C)", "assay": "C-Kinase inhibitory activity test", "type": "biochemical", "details": "concentration at which enzyme activity was inhibited 50%", "method": "as §1\nC-Kinase inhibitory activity test:\nC-Kinase inhibitory activity of representative Compounds (I) was measured in accordance with the method of Y. Nishizuka, et al. [J. Biol. Chem., 257, 13341 (1982)]. The test was carried out on test compounds at varied concentrations, and the concentration at which the enzyme activity was inhibited 50% (IC50) was determined."}, "[7]": {"details": "in words, from literature; cited from earlier work"}, "[8]": {"test_system": "C-kinase", "details": "in words, cited from earlier work; for inhibitory activity against C-kinase: from literature or other filings; for specificity of C-kinase inhibition: from literature"}, "[9]": {"details": "HeLa S3, HeLaS3, Neutral Red, 72 hours"}, "[10]": {"details": "COLO320DM, cells counted with a microcell counter, 72 hours"}}, "note": "Where two headings read alike, the source gives them in different places.", "data": [{"smiles": "COC(=O)C1(O)CC2OC1(C)n1c3ccccc3c3c4c(c5c6ccccc6n2c5c31)C(=O)NC4", "note": "(centres unmarked) [Compound K-252]", "values": [{"measurement": "activity to inhibit histamine release", "setting": "[1]", "value": "activity to inhibit histamine release"}, {"measurement": "IC50", "setting": "[2]; MCF7, 72 h", "value": 0.51, "unit": "µg/mL"}, {"measurement": "IC50", "setting": "[3]; HeLa S3, 72 h", "value": 0.2, "unit": "µg/mL"}, {"measurement": "IC50", "setting": "[4]; 72 h", "value": 0.27, "unit": "µg/mL"}, {"measurement": "anti-allergic activity", "setting": "[5]", "value": "anti-allergic activity"}, {"measurement": "IC50, C-Kinase inhibitory activity", "setting": "[6]", "value": 0.016, "unit": "µg/mL"}]}, {"smiles": "CN[C@@H]1C[C@H]2O[C@@](C)([C@@H]1OC)n1c3ccccc3c3c4c(c5c6ccccc6n2c5c31)C(=O)NC4", "note": "[Staurosporine]", "values": [{"measurement": "antibacterial activity", "setting": "[7]", "value": "antibacterial activity"}]}, {"smiles": "CN(C)CCCN1c2ccccc2Sc2ccc(Cl)cc21", "note": "[chlorpromazine]", "values": [{"measurement": "inhibitory activity against C-kinase", "setting": "[8]", "value": "low inhibitory activity against C-kinase"}, {"measurement": "specificity of C-kinase inhibition", "setting": "[8]", "value": "low specificity"}]}, {"smiles": "ClCCN(Cc1ccccc1)Cc1ccccc1", "note": "[dibenamine]", "values": [{"measurement": "inhibitory activity against C-kinase", "setting": "[8]", "value": "low inhibitory activity against C-kinase"}, {"measurement": "specificity of C-kinase inhibition", "setting": "[8]", "value": "low specificity"}]}, {"smiles": "CCSC1NC(=O)c2c1c1c3ccccc3n3c1c1c2c2ccccc2n1C1CC(O)(CO)C3(C)O1", "note": "(centres unmarked) [Compound 7]", "values": [{"measurement": "IC50", "setting": "[2]; MCF7, Neutral Red, 72 hours", "value": 5.08, "unit": "µg/mL"}, {"measurement": "IC50", "setting": "[3]; [9]", "value": 1.43, "unit": "µg/mL"}, {"measurement": "IC50", "setting": "[4]; [10]", "value": 1, "unit": "µg/mL"}, {"measurement": "IC50, C-Kinase inhibitory activity", "setting": "[6]", "value": 0.18, "unit": "µg/mL"}]}, {"smiles": "CC12OC(CC1(O)C(=O)O)n1c3ccccc3c3c4c(c5c6ccccc6n2c5c31)CNC4=O", "note": "(centres unmarked) [KT-5556]", "values": [{"measurement": "activity to inhibit histamine release", "setting": "[1]", "value": "activity to inhibit histamine release"}]}, {"smiles": "CCCCNc1ccc(C(=O)OCCN(C)C)cc1", "note": "[tetracaine]", "values": [{"measurement": "inhibitory activity against C-kinase", "setting": "[8]", "value": "low inhibitory activity against C-kinase"}, {"measurement": "specificity of C-kinase inhibition", "setting": "[8]", "value": "low specificity"}]}, {"smiles": "CN1CCN(CCCN2c3ccccc3Sc3ccc(C(F)(F)F)cc32)CC1", "note": "[trifluoperazine]", "values": [{"measurement": "inhibitory activity against C-kinase", "setting": "[8]", "value": "low inhibitory activity against C-kinase"}, {"measurement": "specificity of C-kinase inhibition", "setting": "[8]", "value": "low specificity"}]}, {"smiles": "NCCCCCCNS(=O)(=O)c1cccc2c(Cl)cccc12", "note": "[Compound W-7, N-(6-aminohexyl)-5-chloro-1-naphthalenesulfonamide]", "values": [{"measurement": "inhibitory activity against C-kinase", "setting": "[8]", "value": "low inhibitory activity against C-kinase"}, {"measurement": "specificity of C-kinase inhibition", "setting": "[8]", "value": "low specificity"}]}, {"smiles": "COC(=O)C1(O)CC2OC1(C)n1c3ccccc3c3c4c(c5c6ccccc6n2c5c31)C(=O)NC4O", "note": "(centres unmarked) [Compound 5]", "values": [{"measurement": "IC50", "setting": "[2]; MCF7, Neutral Red, 72 hours", "value": 0.8, "unit": "µg/mL"}, {"measurement": "IC50", "setting": "[3]; [9]", "value": 1.53, "unit": "µg/mL"}, {"measurement": "IC50", "setting": "[4]; [10]", "value": 2.55, "unit": "µg/mL"}, {"measurement": "IC50, C-Kinase inhibitory activity", "setting": "[6]", "value": 1.2, "unit": "µg/mL"}]}]}
